From US12421276B2 (priority 2016, dated 2025)
“And” between values parts separate entries of the source, which are not always exact repeats. Identical values can stand only once. Like-named read-outs stand apart in the source and are kept apart here.

Columns and labels:
[1] = Plasma stability study, human plasma; assay type: in vitro ADME; conditions: Human plasma, 1 μM, 37° C.
Protocol: (§1) Human and rat plasma (K2 EDTA) were obtained from Bioreclamation.
(§2) Compounds were dissolved as 0.3 mM DMSO stocks. Compounds were transferred to the plasma at 1 μM on a 96-well deep well plate. After mixing, samples were transferred to several 96-well plates (25 μL/well), and incubated at 37° C. The extent of metabolism was calculated as the disappearance of the test compound, compared to the 0-min control reaction incubations. Propantheline was included as a positive control to verify assay performance.
(§3) At each of the time points, 150 μL of quench solution (50% acetonitrile, 50% methanol with 0.05% formic acid) with internal standard (bucetin for positive ESI mode and warfarin for negative ESI mode) was transferred to each well. Plates were sealed and centrifuged at 4° C. for 15 minutes at 4000 rpm. The supernatant was transferred to fresh plates for LC/MS/MS analysis.
(§4) Elution conditions are detailed in the table below.
(§5) Initial rates of the clearance of test compounds were calculated using linear regression of semi-log plot of % remaining of compounds versus time. The elimination rate constant (equals to −slope) of the linear regression was then used to determine t½ values.

[2] = Metabolic stability in simulated gastric fluid (SGF), pH 1.2, with or without pepsin; assay type: in vitro ADME; conditions: 5 μM, 37° C.
Method in brief: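 Compound at 5 μM incubated at 37 °C in SGF (34.2 mM NaCl, pH 1.2) without or with 0.32% pepsin; acetonitrile/formic acid quench at time points, LC/MS/MS. Disappearance relative to 0-min; t½ from elimination rate constant of semi-log % remaining vs time.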

[3] = assay type: in vivo, rat
Method in brief: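 Male SD rats (n=4/group) dosed PO at 13.2 or 14.2 mg/kg (10 mL/kg) and housed in metabolic cages with daily urine collection. EDTA blood sampled predose to 24 h post-dose, centrifuged at 4 °C to plasma, analysed by LC-MS.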

[4] = Plasma stability study, rat plasma; assay type: in vitro ADME; conditions: Rat plasma, 1 μM, 37° C.
Protocol: as §1, §2, §3, §4, §5

[5] = Rat, PO, 10 mg/kg equiv., n = 4, analyte: Parent (BASE STRUCTURE)
[6] = rat, dosed as prodrug, 10 mg/kg equivalent of Base Structure, analyte Parent (Base Structure), Average
[7] = rat, dosed as prodrug, 10 mg/kg equivalent of Base Structure, analyte Parent (Base Structure), Combined (average ± std. dev.)
[8] = rat, dosed as prodrug, 10 mg/kg equivalent of Base Structure, analyte Parent (Base Structure), individual animals
[9] = rat, dosed as prodrug, 10 mg/kg equivalent of Base Structure, analyte Parent (Base Structure), individual animals, 10 mg/kg
[10] = rat, dosed as prodrug, 10 mg/kg equivalent of Base Structure, analyte Prodrug, Average
[11] = rat, dosed as prodrug, 10 mg/kg equivalent of Base Structure, analyte Prodrug, Combined (average ± std. dev.)
[12] = rat, dosed as prodrug, 10 mg/kg equivalent of Base Structure, analyte Prodrug, individual animals

With `CCCCCC(=O)NC(Cc1ccc(OC(=O)N2CCN(C)CC2)cc1)C(=O)NC(C(=O)NCCCCCC(N)=O)C(C)CC` (centres unmarked) [Compound A20] the “Plasma Stability Half-Life” value [1] was 49.295 h, the “Plasma Stability (% Parent Remaining) 0 min” value ([1]; 0 min) was 100% and the “Plasma Stability (% Parent Remaining) 60 min” value ([1]; 60 min) was 83%. For the same molecule, the “Plasma Stability (% Parent Remaining) 120 min” value ([1]; 120 min) was 87%, the “Plasma Stability (% Parent Remaining) 240 min” value ([1]; 240 min) was 90% and the “SGF Stability (pH 1.2) Half-Life (min)” value ([2]; +Pepsin (0.32%)) was 84.5 min. The “SGF Stability (pH 1.2) 0 min” value ([2]; +Pepsin (0.32%)) was 100%, the “SGF Stability (pH 1.2) 60 min” value ([2]; +Pepsin (0.32%)) was 57% and the “SGF Stability (pH 1.2) 120 min” value ([2]; +Pepsin (0.32%)) was 37%. The “SGF Stability (pH 1.2) 240 min” value ([2]; +Pepsin (0.32%)) was 26%, the “SGF Stability (pH 1.2) Half-Life (min)” value ([2]; −Pepsin) was 116.5 min and the “SGF Stability (pH 1.2) 0 min” value ([2]; −Pepsin) was 100%. The “SGF Stability (pH 1.2) 60 min” value ([2]; −Pepsin) was 70%, the “SGF Stability (pH 1.2) 120 min” value ([2]; −Pepsin) was 57% and the “SGF Stability (pH 1.2) 240 min” value ([2]; −Pepsin) was 60%. The “AUC0-24 (ng · h/mL)” value [3, 5] was 0.8 ± 1^ ng · h/mL, the “AUC0-inf” value [3, 5] was 1.61 ng·h/mL and the “Cmax” value [3, 5] was 1.7 ± 1.3 ng/mL. For the same molecule, the “Tmax (h)” value [3, 5] was 0.3 ± 0^ h, the “half-life” value [3, 5] was 10.2 min and the “Tmax” value ([3]; Rat, PO, 10 mg/kg equiv., n = 4, analyte: Prodrug) was 0 min. For the same molecule, the “AUC 0-inf_obs” value [3, 6] was 1.611 ng·h/mL, the “AUC 0-t” value [3, 6] was 0.8309 ng·h/mL and the “AUMC 0-inf_obs” value [3, 6] was 0.6699 ng/ml * h^2. For the same molecule, the Cl/F_obs [3, 6] was 6.207 (mg/kg)/(ng/ml)/h, the Cmax [3, 6] was 1.7125 ng/mL and the Lambda_z [3, 6] was 4.022 h⁻¹. For the same molecule, the “MRT 0-inf_obs” value [3, 6] was 24.95 min, the Tlag [3, 6] was 0 h and the Tmax [3, 6] was 15 min. The Vz/F_obs [3, 6] was 1.543 (mg/kg)/(ng/ml), the t1/2 [3, 6] was 10.34 min and the “AUC 0-inf_obs” value [3, 7] was 1.611 ng·h/mL. For the same molecule, the “AUC 0-t” value [3, 7] was 0.8 ± 1 ng·h/mL, the “AUMC 0-inf_obs” value [3, 7] was 0.6699 ng/ml * h^2 and the Cl/F_obs [3, 7] was 6.207 (mg/kg)/(ng/ml)/h. The Cmax [3, 7] was 1.7 ± 1.3 ng/mL, the Lambda_z [3, 7] was 4.022 h⁻¹ and the “MRT 0-inf_obs” value [3, 7] was 24.95 min. The Tlag [3, 7] was 0 ± 0 h, the Tmax [3, 7] was 18 ± 0 min and the Vz/F_obs [3, 7] was 1.543 (mg/kg)/(ng/ml). The t1/2 [3, 7] was 10.34 min, the “AUC 0-inf_obs” value [3, 8] was 1.611 ng·h/mL and the “AUMC 0-inf_obs” value [3, 8] was 0.6699 ng/ml * h^2. For the same molecule, the Cl/F_obs [3, 8] was 6.207 (mg/kg)/(ng/ml)/h, the Lambda_z [3, 8] was 4.022 h⁻¹ and the “MRT 0-inf_obs” value [3, 8] was 24.95 min. For the same molecule, the Tlag [3, 8] was 0 h, the Tmax [3, 8] was 15 min and the Vz/F_obs [3, 8] was 1.543 (mg/kg)/(ng/ml). For the same molecule, the t1/2 [3, 8] was 10.34 min, the “AUC 0-t” value [3, 9] was 0.08927 ng·h/mL and 1.5726 ng·h/mL and the Cmax [3, 9] was 0.765 ng/mL and 2.66 ng/mL. For the same molecule, the “AUMC 0-inf_obs” value [3, 10] was 0 ng/ml * h^2, the Cl/F_obs [3, 10] was 0 (mg/kg)/(ng/ml)/h and the Lambda_z [3, 10] was 0 h⁻¹. The Tlag [3, 10] was 0 h, the Tmax [3, 10] was 0 min and the Vz/F_obs [3, 10] was 0 (mg/kg)/(ng/ml). For the same molecule, the “AUMC 0-inf_obs” value [3, 11] was 0 ng/ml * h^2, the Cl/F_obs [3, 11] was 0 (mg/kg)/(ng/ml)/h and the Lambda_z [3, 11] was 0 h⁻¹. The Tlag [3, 11] was 0 h, the Tmax [3, 11] was 0 min and the Vz/F_obs [3, 11] was 0 (mg/kg)/(ng/ml). The “AUMC 0-inf_obs” value [3, 12] was 0 ng/ml * h^2, the Cl/F_obs [3, 12] was 0 (mg/kg)/(ng/ml)/h and the Lambda_z [3, 12] was 0 h⁻¹. For the same molecule, the Tlag [3, 12] was 0 h, the Tmax [3, 12] was 0 min and the Vz/F_obs [3, 12] was 0 (mg/kg)/(ng/ml). The “Plasma Stability Half-Life” value [4] was 157.0 min, the “Plasma Stability (% Parent Remaining) 0 min” value ([4]; 0 min) was 100% and the “Plasma Stability (% Parent Remaining) 60 min” value ([4]; 60 min) was 73%. The “Plasma Stability (% Parent Remaining) 120 min” value ([4]; 120 min) was 56% and the “Plasma Stability (% Parent Remaining) 240 min” value ([4]; 240 min) was 34%.
